Earlier results on 1 compound are cited in patent US10206934B2, “Implants and methods for treating inflammation-mediated conditions of the eye” (Allergan, Inc., priority 2000, dated 2019).

The conditions of the data set: fold less potent; 25 mg equivalent to 1 mg dexamethasone.

As for `C[C@]12CCC(=O)C=C1CC[C@@H]1[C@@H]2[C@@H](O)C[C@@]2(C)[C@H]1CC[C@]2(O)C(=O)CO` [hydrocortisone], the “Potency relative to dexamethasone” value is “approximately twentyfivefold”.
